Test results taken from paper PMC7356157, “Shorter Antibacterial Peptide Having High Selectivity for E. coli Membranes and Low Potential for Inducing Resistance” (Microorganisms, 2020).
Values after ≈ are worked out from the molar mass of the structure shown. Where two headings read alike, the source gives them in different places. No end group written: not given here.

How the values were obtained:
E. coli ML35 = experiment: Permeabilising internal membrane (ONPG); format: cell-based; settings: 1× MIC, ONPG, 405 nm, 4.5 h
E. coli ATCC 25922 [1] = format: cell-based; settings: for MIC E. coli 25922: broth microdilution, MHB, ~5 × 10^5 CFU/mL, 18 h, 37 °C, OD 620 nm, 100 to 0.2 µM; for MIC against E. coli 25922, MHB: no serum
P. aeruginosa 27853 = experiment: MIC by broth microdilution; format: cell-based; settings: MHB, 18 h, 37 °C
[2] = tested on: human red blood cells (hRBC); experiment: Haemolytic activity (MHC); format: cell-based; settings: 5% v/v hRBC in 1X PBS, 200–0.39 µM, 1 h, 37 °C, absorbance 560 nm
Method: A haemolytic activity assay was used for determining whether peptides acted on hRBC membrane by calculating the minimum haemolytic concentration (MHC). Briefly, 100 µL serial dilutions of peptides were incubated in a 96-well plate with an equal volume of a fresh hRBC suspension at 5% v/v in 1X PBS (200–0.39 µM final peptide concentrations). The samples were spun at 1000× g for 5 min after having been incubated at 37 °C for 1 h and a Multiskan spectrometer (Thermo Fisher) was used for measuring 100 µL supernatant absorbance at 560 nm. Treated hRBC absorbance 0.1% Triton X-100 or 100% haemolysis was used as positive control.

[3] = tested on: E. coli clinical isolate 4; experiment: Resistance profile of clinical isolate (VITEK-2); format: cell-based; settings: Escherichia coli, isolate from urine
Text: (§1) Approximately 50 bacterial samples were then collected from E. coli-infected patients for evaluating activity of the peptides against some clinical isolates. These samples were identified and biochemically and metabolically characterised using the VITEK-2 equipment. Isolates were profiled regarding their resistance or susceptibility to a panel of conventionally used antibiotics.

[4] = tested on: E. coli clinical isolate 40; experiment: Resistance profile of clinical isolate (VITEK-2); format: cell-based; settings: Escherichia coli, isolate from blood
Text: as §1

[5] = tested on: E. coli clinical isolate 44; experiment: Resistance profile of clinical isolate (VITEK-2); format: cell-based; settings: Escherichia coli, isolate from blood
Text: as §1

E. coli [6] = settings: for FIC Index: peptide + ciprofloxacin, lowest checkerboard FIC index (method 3); for FIC P (peptide): with ciprofloxacin
Method: (§4) The checkerboard method was used for evaluating peptide antibacterial activity in combination with antibiotics [43]. […] Absorbance was measured at 620 nm and individual peptide and antibiotic MIC and combined MIC were obtained. […] The fractional inhibitory concentration index (FICI) was then calculated as the sum of peptide FIC + antibiotic FIC. A ≤ 0.5 FICI indicated synergy, 0.5 to ≤4 FICI indifference, and >4 FICI antagonism [45].
(§5) The results were interpreted by taking the lowest checkerboard FIC index (previously reported method 3) [44].

E. coli [7] = settings: for FIC Index: peptide + gentamicin, lowest checkerboard FIC index (method 3); for FIC P (peptide): with gentamicin
Method: as §4, §5

E. coli 35218 = format: cell-based
Method: (§2) Bactericidal activity was evaluated by sowing an aliquot of Luria Bertani agar (LBA) in the wells where no growth had been detected in the MIC assay.

E. coli ATCC 11775 = format: cell-based; settings: broth microdilution
E. coli 25922 = experiment: Antibacterial activity in the presence of human sera; format: cell-based; settings: for MIC against E. coli 25922, Serum (without Pre-Incubation): peptide diluted in fresh human sera (100%), then inoculum in MHB ~5 × 10^5 CFU/mL, 18 h, 37 °C
Method: The second assay involved peptide dilution in fresh human sera (100%) pre-incubated for 6 h at 37 °C in a humid chamber before putting them in contact with the bacterial inoculum diluted in MHB (~5 × 10^5 CFU/mL). The assay was incubated and read as mentioned in the microdilution section.

E. coli ML35 43827 [8] = format: cell-based; settings: broth microdilution
E. coli ATCC 25922 [9] = experiment: Bactericidal activity (MBC); format: cell-based; settings: aliquots of no-growth MIC wells on LBA, 18 h, 37 °C; kills 99.9%
Method: as §2

E. coli ML35 43827 [10] = experiment: Bactericidal activity (MBC); format: cell-based
Method: as §2

[11] = tested on: E. coli N°4 (clinical isolate); settings: clinical isolate from urine, broth microdilution
Method: (§3) The standard broth microdilution method was used for determining the peptides’ MIC [41]. […] Bacteria in Müller–Hinton broth (MHB) were used as negative control. […] The MIC was determined as the lowest peptide concentration at which bacterial growth was not detected.
as §1

[12] = tested on: E. coli N°40 (clinical isolate); settings: clinical isolate from blood, broth microdilution
Method: as §3, §1

[13] = tested on: E. coli N°44 (clinical isolate); settings: clinical isolate from blood, ESBL (+), broth microdilution
Method: as §3, §1

[14] = tested on: E. coli N°44 (clinical isolate); format: cell-based
Method: as §2
Approximately 50 bacterial samples were then collected from E. coli-infected patients for evaluating activity of the peptides against some clinical isolates. These samples were identified and biochemically and metabolically characterised using the VITEK-2 equipment. Isolates were profiled regarding their resistance or susceptibility to a panel of conventionally used antibiotics. Three E. coli isolates having different resistance profiles were then selected following such characterisation (Appendix A): • Isolate 4 (from urine): extended spectrum beta-lactamase (ESBL) (-), resistant to ampicillin, quinolones and co-trimoxazole. • Isolate 40 (from blood): ESBL (-), resistant to ampicillin, 1st-generation cephalosporins and co-trimoxazole. • Isolate 44 (from blood): ESBL (+), resistant to aminoglycosides, quinolones, β-lactams (including 1st-, 3rd- and 4th-generation cephalosporins).

[15] = tested on: E. coli 35218 (ampicillin-resistant ATCC 35218 strain); format: cell-based; settings: broth microdilution

Row | Molecule | MIC E. coli 25922 (E. coli ATCC 25922 [1]) | MIC P. aeruginosa 27853 (P. aeruginosa 27853) | MHC (minimum haemolytic concentration) [2] | MIC [3] | MIC [4] | MIC [5] | other results
1 | cecropin P1 (SWLSKTAKKLENSAKKRISEGIAIAIQGGPR; UniProt P14661 14-44, looked up) [positive permeabilisation control peptide, reference compound] | – | – | – | – | – | – | permeabilisation of E. coli internal membrane (E. coli ML35): capable of inducing a high rate of permeabilisation for the first 30 min of incubation
2 | MKKALQYIKLLKE-NH2 [Peptide 35409-5] | >100 µM | >100 µM | >200 µM | – | – | – | –
3 | RYRRKKK-NH2 [Peptide 35409-12] | >100 µM | >100 µM | >200 µM | – | – | – | –
4 | CCn1cc(C(=O)O)c(=O)c2ccc(C)nc21 [Nalidixic acid] | – | – | – | ≥ 32 µg/mL | ≤ 2 µg/mL | ≥ 32 µg/mL | –
5 | KMKKALQY-NH2 [Peptide 35409-16] | >100 µM | >100 µM | >200 µM | – | – | – | –
6 | O=C1CN(/N=C/c2ccc([N+](=O)[O-])o2)C(=O)N1 [Nitrofurantoin] | – | – | – | ≤ 16 µg/mL | ≤ 16 µg/mL | ≤ 16 µg/mL | –
7 | KMKKALQYIKLLKE-NH2 [Peptide 35409-4] | 100 µM | >100 µM | >200 µM | – | – | – | FIC Index (E. coli [6]): 3; FIC P (peptide) (E. coli [6]): 1; MIC against E. coli 25922, MHB (E. coli ATCC 25922 [1]): 100 µM; FIC Index (E. coli [7]): 0.75; FIC P (peptide) (E. coli [7]): 0.25; MBC E. coli 35218 (E. coli 35218): 50 µM; MIC E. coli 11775 (E. coli ATCC 11775): >100 µM; MIC against E. coli 25922, Serum (without Pre-Incubation) (E. coli 25922): 100 µM; MIC E. coli ML35 43827 (E. coli ML35 43827 [8]): 25 µM; MBC E. coli 25922 (E. coli ATCC 25922 [9]): 100 µM; MBC E. coli ML35 43827 (E. coli ML35 43827 [10]): 50 µM; MIC E. coli N°4 [11]: >100 µM; MIC E. coli N°40 [12]: >100 µM; MIC E. coli N°44 [13]: 100 µM; MBC E. coli N°44 [14]: > 100 µM; MIC E. coli 35218 [15]: 25 µM
8 | CC(C)(O/N=C(\C(=O)N[C@@H]1C(=O)N2C(C(=O)[O-])=C(C[n+]3ccccc3)CS[C@H]12)c1csc(N)n1)C(=O)O [Ceftazidime] | – | – | – | ≤ 1 µg/mL | ≤ 1 µg/mL | ≥ 64 µg/mL | –
9 | O=C(O)c1cn(C2CC2)c2cc(N3CCNCC3)c(F)cc2c1=O [Ciprofloxacin, ciprofloxacin, reference compound] | – | – | – | – | – | – | MIC (E. coli 25922; Escherichia coli, 25922, read-out: MIC against E. coli 25922, Serum (6 h Pre-Incubation) (ciprofloxacin), fresh human sera (100%), 6 h pre-incubation at 37 °C): 0.004 µg/mL
10 | YIKLLKE-NH2 [Peptide 35409-7] | >100 µM | >100 µM | >200 µM | – | – | – | –
11 | RYRRKKKMKKA-NH2 [Peptide 35409-10] | >100 µM | >100 µM | >200 µM | – | – | – | –
12 | KKMKKALQYIKL-NH2 [Peptide 35409-14] | >100 µM | >100 µM | 100 µM | – | – | – | –
13 | RYRRKKKMKK-NH2 [Peptide 35409-11] | >100 µM | >100 µM | >200 µM | – | – | – | –
14 | CO/N=C(\C(=O)N[C@@H]1C(=O)N2C(C(=O)O)=C(COC(C)=O)CS[C@H]12)c1csc(N)n1 [Cefotaxime] | – | – | – | ≤ 1 µg/mL | ≤ 1 µg/mL | ≥ 64 µg/mL | –
15 | CC(=O)OCC1=C(C(=O)O)N2C(=O)[C@@H](NC(=O)Cc3cccs3)[C@H]2SC1 [Cephalothin] | – | – | – | 4 µg/mL (≈ 10.1 µM) | 16 µg/mL (≈ 40.4 µM) | ≥ 64 µg/mL | –
16 | KKKMKKALQYIKLLKE-NH2 [Peptide 35409-2] | 25 µM | >100 µM | >200 µM | – | – | – | FIC Index (E. coli [6]): 3; FIC P (peptide) (E. coli [6]): 1; MIC against E. coli 25922, MHB (E. coli ATCC 25922 [1]): 25 µM; FIC Index (E. coli [7]): 0.75; FIC P (peptide) (E. coli [7]): 0.25; MBC E. coli 35218 (E. coli 35218): 25 µM; MIC E. coli 11775 (E. coli ATCC 11775): >100 µM; MIC against E. coli 25922, Serum (without Pre-Incubation) (E. coli 25922): 25 µM; MIC E. coli ML35 43827 (E. coli ML35 43827 [8]): 6 µM; MBC E. coli 25922 (E. coli ATCC 25922 [9]): 25 µM; MBC E. coli ML35 43827 (E. coli ML35 43827 [10]): 12.5 µM; MIC E. coli N°4 [11]: >100 µM; MIC E. coli N°40 [12]: 50 µM; MIC E. coli N°44 [13]: 50 µM; MBC E. coli N°44 [14]: > 100 µM; MIC E. coli 35218 [15]: 12.5 µM
17 | C[C@@H](O)[C@H]1C(=O)N2C(C(=O)O)=C(SCCN=CN)C[C@H]12 [Imipenem] | – | – | – | ≤ 1 µg/mL | ≤ 1 µg/mL | ≤ 1 µg/mL | –
18 | KKMKKALQYIKLLKE-NH2 [Peptide 35409-3] | >100 µM | >100 µM | >200 µM | – | – | – | –
19 | NCC[C@H](O)C(=O)N[C@@H]1C[C@H](N)[C@@H](O[C@H]2O[C@H](CN)[C@@H](O)[C@H](O)[C@H]2O)[C@H](O)[C@H]1O[C@H]1O[C@H](CO)[C@@H](O)[C@H](N)[C@H]1O [Amikacin] | – | – | – | ≤ 2 µg/mL | ≤ 2 µg/mL | 32 µg/mL (≈ 54.6 µM) | –
20 | ALQYIKLLKE-NH2 [Peptide 35409-6] | >100 µM | >100 µM | >200 µM | – | – | – | –
21 | CC1(C)S[C@@H]2[C@H](NC(=O)[C@H](N)c3ccccc3)C(=O)N2[C@H]1C(=O)O [Ampicillin, ampicillin, reference compound] | – | – | – | ≥ 32 µg/mL | ≥ 32 µg/mL | ≥ 32 µg/mL | MIC E. coli 11775 (antibiotics) (E. coli ATCC 11775): <0.016 µg/mL; MIC E. coli ML35 43827 (antibiotics) (E. coli ML35 43827 [8]): <0.016 µg/mL; MIC E. coli 35218 (antibiotics) [15]: >16 µg/mL
22 | CO/N=C(\C(=O)N[C@@H]1C(=O)N2C(C(=O)[O-])=C(C[N+]3(C)CCCC3)CS[C@H]12)c1csc(N)n1 [Cefepime] | – | – | – | ≤ 1 µg/mL | – | – | –
23 | RYRRKKKMKKALQYIKL-NH2 [Peptide 35409-8] | >100 µM | >100 µM | >200 µM | – | – | – | –
24 | CO[C@@]1(NC(=O)Cc2cccs2)C(=O)N2C(C(=O)O)=C(COC(N)=O)CS[C@@H]21 [Cefoxitin] | – | – | – | ≤ 4 µg/mL | ≤ 4 µg/mL | ≤ 4 µg/mL | –
25 | RYRRKKKMKKALQY-NH2 [Peptide 35409-9] | >100 µM | >100 µM | >200 µM | – | – | – | –
26 | C[C@@H](O)[C@H]1C(=O)N2C(C(=O)O)=C(S[C@@H]3CN[C@H](C(=O)N(C)C)C3)[C@H](C)[C@H]12 [Meropenem] | – | – | – | ≤ 0.25 µg/mL | ≤ 0.25 µg/mL | ≤ 0.25 µg/mL | –
27 | RKKKMKKALQY-NH2 [Peptide 35409-15] | >100 µM | >100 µM | 200 µM | – | – | – | –
